Where two headings read alike, the source gives them in different places. Each block holds one compound with its values, some of them ahead of it.
Molecular target: T1, P2X7 receptor (Homo sapiens, UniProt Q99572)
T1 construct: host or cells: SH-SY5Y
T1 sequence (Q99572 1-595): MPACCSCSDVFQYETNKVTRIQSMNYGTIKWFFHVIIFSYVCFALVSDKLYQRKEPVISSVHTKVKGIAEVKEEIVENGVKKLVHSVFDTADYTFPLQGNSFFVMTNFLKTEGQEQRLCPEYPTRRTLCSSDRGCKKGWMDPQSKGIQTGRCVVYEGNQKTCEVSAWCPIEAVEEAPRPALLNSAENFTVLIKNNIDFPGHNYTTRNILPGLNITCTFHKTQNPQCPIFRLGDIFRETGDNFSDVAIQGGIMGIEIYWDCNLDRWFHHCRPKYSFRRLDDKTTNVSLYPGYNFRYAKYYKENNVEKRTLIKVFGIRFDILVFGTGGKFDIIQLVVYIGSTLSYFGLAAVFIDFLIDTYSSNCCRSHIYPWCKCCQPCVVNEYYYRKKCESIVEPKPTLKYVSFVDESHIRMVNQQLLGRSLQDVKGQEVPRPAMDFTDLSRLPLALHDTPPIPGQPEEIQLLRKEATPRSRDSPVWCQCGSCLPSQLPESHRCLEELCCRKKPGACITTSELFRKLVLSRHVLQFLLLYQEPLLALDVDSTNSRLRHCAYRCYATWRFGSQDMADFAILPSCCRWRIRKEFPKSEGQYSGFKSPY
Assay: P2X7 calcium mobilization assay, high throughput, antagonist activity (Example 4A)
Format: cell-based
Outline: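 Cells plated 100,000/well the day before; after 1 h dye loading and one rinse, cells were preincubated 1 h at room temperature with test compound. Calcium mobilization then read on FLIPR^TETRA; maximum RFU corrected by subtracting mean no-agonist response and referenced to mean agonist-control maximum.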

[1] = 50% decrease in the fluorescence response of cells exposed to 80 μM of 2′(3′)-O-(4-benzoyl-benzoyl)adenosine 5′-triphosphate, determined as in Example 4A, read-out: IC50
[2] = 50% decrease in the fluorescence response of cells exposed to 80 μM of 2′(3′)-O-(4-benzoyl-benzoyl)adenosine 5′-triphosphate, Example 4A, read-out: IC50
[3] = SH-SY5Y cells, 50% decrease in fluorescence response to 80 μM BzATP, read-out: IC50
[4] = 50% decrease in the fluorescence response of cells exposed to 80 μM 2′(3′)-O-(4-benzoyl-benzoyl)adenosine 5′-triphosphate, Example 4A, read-out: IC50

IC50 [1]: < 2000 nM
SMILES: Cc1ccc(C2(CNC(=O)c3cccc4nc(CC(Cc5ccccc5)C(=O)O)cn34)CCCCC2)cc1 (stereo not drawn) [Compound 1011, 2-benzyl-3-[5-({[1-(4-methylphenyl)cyclohexyl]methyl}carbamoyl)imidazo[1,2-a]pyridin-2-yl] propanoic acid]

IC50 [2]: < 2000 nM
SMILES: O=C(NCC12CC3CC(CC(C3)C1)C2)c1cccc2nc(CC(=O)N3CC[C@@H](NCCO)C3)cn12 [Compound 726, N-(adamantan-1-ylmethyl)-2-(2-{(3R)-3-[(2-hydroxyethyl)amino]pyrrolidin-1-yl}-2-oxoethyl) imidazo[1,2-a]pyridine-5-carboxamide]

IC50 [3]: < 2000 nM
SMILES: O=C(Cc1cn2c(C(=O)NCC34CC5CC(CC(C5)C3)C4)cccc2n1)NCC1CC1 [Compound 147, N-(adamantan-1-ylmethyl)-2-{2-[(cyclopropylmeth-yl)amino]-2-oxoethyl}imidazo[1,2-a]pyridine-5-carboxamide]

IC50 [1]: < 2000 nM
SMILES: CCOC(=O)Cc1nnn(Cc2cn3c(C(=O)NCC45CC6CC(CC(C6)C4)C5)cccc3n2)n1 [Compound 901, ethyl [2-({5-[(adamantan-1-ylmethyl)carbamoyl]imidazo[1,2-a]pyridin-2-yl}methyl)-2H-tetrazol-5-yl]acetate]

IC50 [3]: < 2000 nM
SMILES: CO[C@H]1CCN(C(=O)Cc2cn3c(C(=O)NCC45CC6CC(CC(C6)C4)C5)cccc3n2)C1 [Compound 175, N-(adamantan-1-ylmethyl)-2-{2-[(3S)-3-methoxypyrrolidin-1-yl]-2-oxoethyl}imidazo[1,2-a]pyridine-5-carboxamide]

IC50 (fluorescence response of cells exposed to 80 μM 2′(3′)-O-(4-benzoyl-benzoyl)adenosine 5′-triphosphate, Example 4A, read-out: IC50): < 2000 nM
SMILES: CCCCN(CCO)C(=O)c1cn2c(NC(=O)CC34CC5CC(CC(C5)C3)C4)cccc2n1 [Compound 412, 5-[(adamantan-l-ylacetyl)amino]-N-butyl-N-(2-hydroxyethyl)imidazo [1,2-a]pyridine-2-carboxamide]

SMILES: CC(C)C[C@@H](NC(=O)c1cn2c(C(=O)NC[C@@H]3CC[C@H]4C[C@@H]3C4(C)C)cccc2n1)C(N)=O [Compound 514, 2-N-[(1R)-1-carbamoyl-3-methylbutyl]-5-N-{[(1S,2R,5S)-6,6-dimethylbicyclo[3.1.1]hept-2-yl]methyl} imidazo[1,2-a]pyridine-2,5-dicarboxamide]
IC50 [4]: < 2000 nM

IC50 [4]: < 2000 nM
SMILES: CC1(C)[C@@H]2CC[C@@H](CNC(=O)c3cccc4nc(CC(=O)N5CCCCC5CN)cn34)[C@H]1C2 (stereo partly drawn) [Compound 579, 2-{2-[2-(aminomethyl)piperidin-1-yl]-2-oxoethyl}-N-{[(1R,2R,5R)-6,6-dimethylbicyclo[3.1.1]hept-2-yl]methyl}imidazo[1,2-a]pyridine-5-carboxamide]

SMILES: CC1(C)CCCN(C(=O)c2cn3c(C(=O)NC[C@@H]4CC[C@H]5C[C@@H]4C5(C)C)cccc3n2)C1 [Compound 491, N-{[(1S,2R,5S)-6,6-dimethylbicyclo [3.1.1]hept-2-yl]methyl}-2-[(3,3-dimethyl-piperidin-1-yl)carbonyl]imidazo [1,2-a]pyridine-5-carboxamide]
IC50: < 2000 nM

IC50 [2]: < 2000 nM
SMILES: CCOC(=O)C(Cc1ccc(OC)cc1)c1cn2c(C(=O)NCC34CC5CC(CC(C5)C3)C4)cccc2n1 (stereo not drawn) [Compound 801, ethyl 2-{5-[(adamantan-1-ylmethyl)carbamoyl]imidazo[1,2-a]pyridin-2-yl}-3-(4-methoxyphenyl) propanoate]

SMILES: CN(CCO)Cc1cn2c(C(=O)NCC34CC5CC(CC(C5)C3)C4)cccc2n1 [Compound 131, N-(adamantan-1-ylmethyl)-2-{[(2-hydroxyethyl)(meth-yl)amino]methyl}imi-dazo[1,2-a]pyridine-5-carboxamide]
IC50: < 2000 nM

IC50 [2]: < 2000 nM
SMILES: CN(C)CCN(C(=O)c1cn2c(C(=O)NCC34CC5CC(CC(C5)C3)C4)cccc2n1)C1CCNCC1(C)C (stereo not drawn) [Compound 620, 5-N-(adamantan-1-ylmethyl)-2-N-[2-(dimethylamino)ethyl]-2-N-(3,3-dimethylpiperidin-4-yl)imidazo[1,2-a]pyridine-2,5-dicarboxamide]

— patent US8431593B2, “Heteroaryl amide derivatives” (H. Lundbeck A/S, priority 2006, dated 2013)
